# Assay results as given in ChEMBL document CHEMBL1140508, “Novel C2-purine position analogs of nitrobenzylmercaptopurine riboside as human equilibrative nucleoside transporter 1 inhibitors” (Bioorg Med Chem, 2007).
# Biological target: T1, Equilibrative nucleoside transporter 1 (Homo sapiens, UniProt Q99808)
# T1 sequence (Q99808 whole entry): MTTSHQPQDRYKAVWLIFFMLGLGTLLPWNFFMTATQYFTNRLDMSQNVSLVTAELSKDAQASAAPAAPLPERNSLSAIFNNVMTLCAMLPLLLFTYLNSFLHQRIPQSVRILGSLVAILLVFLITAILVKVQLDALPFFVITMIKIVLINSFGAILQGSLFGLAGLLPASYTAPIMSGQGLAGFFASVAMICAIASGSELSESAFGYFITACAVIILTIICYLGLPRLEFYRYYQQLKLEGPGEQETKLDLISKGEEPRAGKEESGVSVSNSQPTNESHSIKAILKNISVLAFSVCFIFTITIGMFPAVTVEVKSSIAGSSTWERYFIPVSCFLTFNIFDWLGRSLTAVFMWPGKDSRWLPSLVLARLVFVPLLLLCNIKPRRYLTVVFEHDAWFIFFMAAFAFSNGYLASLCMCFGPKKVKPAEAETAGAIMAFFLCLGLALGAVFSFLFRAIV
# Assay: Displacement of SAENTA-fluorescein from human ENT1 in K562 cells after 45 mins by flow cytometry
# Format: cell-based
row,SMILES,Ki
1,O=[N+]([O-])c1ccc(CSc2nc(NCCc3ccccc3)nc3c2ncn3[C@@H]2O[C@H](CO)[C@@H](O)[C@H]2O)cc1,394 nM
2,O=[N+]([O-])c1ccc(CSc2nc(Cl)nc3c2ncn3[C@@H]2O[C@H](CO)[C@@H](O)[C@H]2O)cc1,11 nM
3,O=[N+]([O-])c1ccc(CSc2nc(NCCO)nc3c2ncn3[C@@H]2O[C@H](CO)[C@@H](O)[C@H]2O)cc1,86 nM
4,O=C(Nc1nc(SCc2ccc([N+](=O)[O-])cc2)c2ncn([C@@H]3O[C@H](CO)[C@@H](O)[C@H]3O)c2n1)c1ccccc1,315 nM
5,CCCCCNc1nc(SCc2ccc([N+](=O)[O-])cc2)c2ncn([C@@H]3O[C@H](CO)[C@@H](O)[C@H]3O)c2n1,357 nM
6,O=[N+]([O-])c1ccc(CSc2nc(Br)nc3c2ncn3[C@@H]2O[C@H](CO)[C@@H](O)[C@H]2O)cc1,11 nM
7,CN(C)c1nc(SCc2ccc([N+](=O)[O-])cc2)c2ncn([C@@H]3O[C@H](CO)[C@@H](O)[C@H]3O)c2n1,429 nM
8,O=[N+]([O-])c1ccc(CSc2nc(NCc3ccccc3)nc3c2ncn3[C@@H]2O[C@H](CO)[C@@H](O)[C@H]2O)cc1,247 nM
9,O=[N+]([O-])c1ccc(CSc2nc(N(CCO)CCO)nc3c2ncn3[C@@H]2O[C@H](CO)[C@@H](O)[C@H]2O)cc1,243 nM
10,O=[N+]([O-])c1ccc(CSc2nc(I)nc3c2ncn3[C@@H]2O[C@H](CO)[C@@H](O)[C@H]2O)cc1,11 nM
11,CCCCNc1nc(SCc2ccc([N+](=O)[O-])cc2)c2ncn([C@@H]3O[C@H](CO)[C@@H](O)[C@H]3O)c2n1,325 nM
12,Nc1nc(SCc2ccc([N+](=O)[O-])cc2)c2ncn([C@@H]3O[C@H](CO)[C@@H](O)[C@H]3O)c2n1,1.1 nM
13,O=[N+]([O-])c1ccc(CSc2nc(F)nc3c2ncn3[C@@H]2O[C@H](CO)[C@@H](O)[C@H]2O)cc1,2.1 nM

# Further lines, results first:
row,Ki,SMILES
1,24 nM,CCNc1nc(SCc2ccc([N+](=O)[O-])cc2)c2ncn([C@@H]3O[C@H](CO)[C@@H](O)[C@H]3O)c2n1
2,33 nM,O=[N+]([O-])c1ccc(CSc2nc(NC3CCC3)nc3c2ncn3[C@@H]2O[C@H](CO)[C@@H](O)[C@H]2O)cc1
3,24 nM,CNc1nc(SCc2ccc([N+](=O)[O-])cc2)c2ncn([C@@H]3O[C@H](CO)[C@@H](O)[C@H]3O)c2n1
4,25 nM,O=[N+]([O-])c1ccc(CSc2nc(NC3CC3)nc3c2ncn3[C@@H]2O[C@H](CO)[C@@H](O)[C@H]2O)cc1
5,125 nM,O=[N+]([O-])c1ccc(CSc2nc(NC3CCCC3)nc3c2ncn3[C@@H]2O[C@H](CO)[C@@H](O)[C@H]2O)cc1
6,400 nM,O=[N+]([O-])c1ccc(CSc2nc(NC3CCCCC3)nc3c2ncn3[C@@H]2O[C@H](CO)[C@@H](O)[C@H]2O)cc1
7,34 nM,CC(=O)Nc1nc(SCc2ccc([N+](=O)[O-])cc2)c2ncn([C@@H]3O[C@H](CO)[C@@H](O)[C@H]3O)c2n1
8,193 nM,CCCNc1nc(SCc2ccc([N+](=O)[O-])cc2)c2ncn([C@@H]3O[C@H](CO)[C@@H](O)[C@H]3O)c2n1
